In PubChem BioAssay AID2060905 (Molecular Pharmacology Branch, DTP, NCI, 2025):
Each block holds one compound with its values, some of them ahead of it.

System: 282377-053-R-J1-PDC complex spheroid viability
Experiment: Anticancer human tumor 282377-053-R-J1-PDC patient-derived colon adenocarcinoma cell line growth inhibition [RAS]
Conditions: for IC50: curve of first compound; for viability, T/C: stronger effect = lower value
Description: RAS pathway inhibitors in Combinations in Complex Spheroids
A high-throughput screen of multi-cell type tumor spheroids was designed to identify active combinations of RAS pathway inhibitors and targeted small molecules. Complex spheroids include a stromal component modeled by human endothelial cells (HUVEC) and fibroblasts modeled by human mesenchymal stem cells (MSCs). The concentration ranges selected for each drug and investigational agent were based upon clinically achievable concentrations if the clinical Cmax of the agent was known.
Compounds. The drugs and investigational agents: abemaciclib (NSC768073), cobimetinib (NSC768068), divarasib (GDC6063, NSC841802), docetaxel (NSC628503), GDC-1971 (RLY-1971, NSC841576), gemcitabine (NSC613327), inavolisib (NSC800729), ipatasertib (NSC767898), KB-0742 (NSC834161), MRTX-1133 (NSC836407), osimertinib (NSC779217), RMC-4630 (NSC839698), RMC-6236 (NSC851965), RMC-6291 (NSC852671), Ro-3306 (NSC812927), sapanisertib (NSC764658), SN-38 (NSC673596), staurosporine (NSC755774), SY5609 (NSC837396), and tovorafenib (DAY101, NSC766906), were obtained from the National Cancer Institute (NCI) Developmental Therapeutics Program Chemical Repository. The FDA-approved anticancer drug set is available from the NCI Developmental Therapeutics Program. […] The stock solutions were prepared in dimethyl sulfoxide (DMSO, Sigma-Aldrich, St. Louis, MO, cat. D2650) at 800-fold the tested concentration and stored at -70 degrees C prior to their use. All drugs and investigational agents were tested over a range starting from a high concentration at or near the clinical Cmax and decreasing in half-log increments. If the clinical Cmax for an agent had not been determined, the highest concentration tested was 10 microM.
Cell Culture. All cells were maintained in an incubator at 37 degrees C and 5% CO2 with 95% humidity. The PDC lines were cultured according to standard operating procedures established by the NCI PDMR. All PDCs were thawed and cultured in Matrigel-coated flasks prepared with a working solution of 1X Ham's F-12 nutrient mix, without supplementation (Invitrogen, Waltham, MA, cat. 11765054), 100 U/mL penicillin-streptomycin (Invitrogen, cat. 15140122), and 2.5% Matrigel (Corning Inc., Corning, NY, cat. 354248) for the first three passages. The 362531-283-R-J2-PDC and 782815-120-R-J1-PDC lines were cultured in 6C/Colon 1B media, which includes advanced DMEM/F-12 (Thermo Fisher Scientific, cat. 12634028), 10 mM HEPES (Thermo Fisher Scientific, cat. 15630080), 1X GlutaMAX supplement (Thermo Fisher Scientific, cat. 35050061), 0.1 mg/mL primocin (InvivoGen, San Diego, CA, cat. ant-pm-2), 10% defined fetal bovine serum, heat inactivated (HyClone Laboratories Inc., Logan, UT, cat. SH30070.03HI), 50% L-WRN conditioned media (ATCC, cat. CRL-3276), 1.25 mM N-Acetyl-L-cysteine (Sigma-Aldrich, cat. A9165), 10 mM nicotinamide (Sigma-Aldrich, cat. N0636), 1X B-27 supplement (Thermo Fisher Scientific, cat. 17504044), 1X N-2 supplement (Thermo Fisher Scientific, cat. 17502048), 50 ng/mL human EGF (Thermo Fisher Scientific, cat. PHG0311), and 10 microM Y-27632 dihydrochloride (Tocris Bioscience, cat. 1254). The K12877-001-R-J1-PDC line was cultured in 6I media, which includes all 6C/Colon 1B media plus 10 ng/mL human FGF-10 (PeproTech, cat. 100-26), 1 ng/mL human FGF-2 (PeproTech, cat. 100-18B), 1 µM prostaglandin E2 (Tocris Bioscience, cat. 2296), […] hydrocortisone (Sigma-Aldrich, cat. H4001), and […] bovine insulin (Sigma-Aldrich, cat. I6634). The K86415-001-R-J1-PDC line was cultured in 6D media, which includes all 6C/Colon 1B media components minus the L-WRN conditioned media. The 485176-168-R4-J1-PDC was cultured in PANC media, which includes all 6C/Colon 1B media plus 100 ng/mL human FGF-10 (PeproTech, cat. 100-26), 500 nM SB-431542 (Selleckchem, cat. S1067), and 10 nM gastrin (Tocris Bioscience, cat. 3006). […]

[1] = second compound 0.0316 µM, first compound 0.0316 µM
[2] = second compound 0.0316 µM, first compound 0.1 µM
[3] = second compound 0.0316 µM, first compound 0.316 µM
[4] = second compound 0.0316 µM, first compound 1 µM
[5] = second compound 0.0316 µM, first compound 3.16 µM
[6] = second compound 0.0316 µM, first compound 10 µM
[7] = second compound 0.1 µM, first compound 0.0316 µM
[8] = second compound 0.1 µM, first compound 0.1 µM
[9] = second compound 0.1 µM, first compound 0.316 µM
[10] = second compound 0.1 µM, first compound 1 µM
[11] = second compound 0.1 µM, first compound 3.16 µM
[12] = second compound 0.1 µM, first compound 10 µM
[13] = second compound 0.316 µM, first compound 0.0316 µM
[14] = second compound 0.316 µM, first compound 0.1 µM
[15] = second compound 0.316 µM, first compound 0.316 µM
[16] = second compound 0.316 µM, first compound 1 µM
[17] = second compound 0.316 µM, first compound 3.16 µM
[18] = second compound 0.316 µM, first compound 10 µM
[19] = second compound 1 µM, first compound 0.0316 µM
[20] = second compound 1 µM, first compound 0.1 µM
[21] = second compound 1 µM, first compound 0.316 µM
[22] = second compound 1 µM, first compound 1 µM
[23] = second compound 1 µM, first compound 3.16 µM
[24] = second compound 1 µM, first compound 10 µM
[25] = second compound 3.16 µM, first compound 0.0316 µM
[26] = second compound 3.16 µM, first compound 0.1 µM
[27] = second compound 3.16 µM, first compound 0.316 µM
[28] = second compound 3.16 µM, first compound 1 µM
[29] = second compound 3.16 µM, first compound 3.16 µM
[30] = second compound 3.16 µM, first compound 10 µM
[31] = second compound 10 µM, first compound 0.0316 µM
[32] = second compound 10 µM, first compound 0.1 µM
[33] = second compound 10 µM, first compound 0.316 µM
[34] = second compound 10 µM, first compound 1 µM
[35] = second compound 10 µM, first compound 3.16 µM
[36] = second compound 10 µM, first compound 10 µM
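Also: spheroids exposed to agents for seven days before readout.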
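For viability, T/C in this document: luminescence viability as percent of DMSO vehicle control wells.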

IC50 (second compound 0.0316 µM): > 10 µM
IC50 (second compound 0.1 µM): > 10 µM
IC50 (second compound 0.316 µM): > 10 µM
IC50 (second compound 1 µM): > 10 µM
IC50 (second compound 3.16 µM): > 10 µM
IC50 (second compound 10 µM): > 10 µM
SMILES: CC(C)NCC(C(=O)N1CCN(c2ncnc3c2C(C)CC3O)CC1)c1ccc(Cl)cc1 (stereo unspecified) + C#Cc1c(F)ccc2cc(O)cc(-c3ncc4c(N5CC6CCC(C5)N6)nc(OCC56CCCN5CC(F)C6)nc4c3F)c12
viability, T/C [1]: 133%
viability, T/C [2]: 111%
viability, T/C [3]: 88.9%
viability, T/C [4]: 94.6%
viability, T/C [5]: 84.1%
viability, T/C [6]: 82.3%
viability, T/C [7]: 88.5%
viability, T/C [8]: 86.5%
viability, T/C [9]: 76.9%
viability, T/C [10]: 90.3%
viability, T/C [11]: 83.5%
viability, T/C [12]: 72.2%
viability, T/C [13]: 104%
viability, T/C [14]: 110%
viability, T/C [15]: 92.8%
viability, T/C [16]: 83%
viability, T/C [17]: 85.9%
viability, T/C [18]: 85.3%
viability, T/C [19]: 105%
viability, T/C [20]: 79.8%
viability, T/C [21]: 89.2%
viability, T/C [22]: 82.5%
viability, T/C [23]: 63.7%
viability, T/C [24]: 69.5%
viability, T/C [25]: 98.5%
viability, T/C [26]: 96.7%
viability, T/C [27]: 81.4%
viability, T/C [28]: 77.7%
viability, T/C [29]: 92.1%
viability, T/C [30]: 70.4%
viability, T/C [31]: 83%
viability, T/C [32]: 87.7%
viability, T/C [33]: 88.9%
viability, T/C [34]: 91.4%
viability, T/C [35]: 86.4%
viability, T/C [36]: 72.4%

IC50 (second compound 0.0316 µM): > 0.1 µM
IC50 (second compound 0.1 µM): > 0.1 µM
IC50 (second compound 0.316 µM): 0.0881 µM
IC50 (second compound 1 µM): > 0.1 µM
IC50 (second compound 3.16 µM): 0.0783 µM
IC50 (second compound 10 µM): > 0.1 µM
SMILES: CC(C)n1nc(-c2ccc3oc(N)nc3c2)c2c(N)ncnc21 + C#Cc1c(F)ccc2cc(O)cc(-c3ncc4c(N5CC6CCC(C5)N6)nc(OCC56CCCN5CC(F)C6)nc4c3F)c12
viability, T/C (second compound 0.0316 µM, first compound 0.000316 µM): 101%
viability, T/C (second compound 0.0316 µM, first compound 0.001 µM): 87.2%
viability, T/C (second compound 0.0316 µM, first compound 0.00316 µM): 105%
viability, T/C (second compound 0.0316 µM, first compound 0.01 µM): 77.5%
viability, T/C [1]: 72.7%
viability, T/C [2]: 56.9%
viability, T/C (second compound 0.1 µM, first compound 0.000316 µM): 115%
viability, T/C (second compound 0.1 µM, first compound 0.001 µM): 107%
viability, T/C (second compound 0.1 µM, first compound 0.00316 µM): 89%
viability, T/C (second compound 0.1 µM, first compound 0.01 µM): 77.7%
viability, T/C [7]: 66.6%
viability, T/C [8]: 50.2%
viability, T/C (second compound 0.316 µM, first compound 0.000316 µM): 99.8%
viability, T/C (second compound 0.316 µM, first compound 0.001 µM): 99.6%
viability, T/C (second compound 0.316 µM, first compound 0.00316 µM): 80.8%
viability, T/C (second compound 0.316 µM, first compound 0.01 µM): 71.1%
viability, T/C [13]: 69.4%
viability, T/C [14]: 45.3%
viability, T/C (second compound 1 µM, first compound 0.000316 µM): 104%
viability, T/C (second compound 1 µM, first compound 0.001 µM): 81.2%
viability, T/C (second compound 1 µM, first compound 0.00316 µM): 82.9%
viability, T/C (second compound 1 µM, first compound 0.01 µM): 66.4%
viability, T/C [19]: 75.9%
viability, T/C [20]: 46.8%
viability, T/C (second compound 3.16 µM, first compound 0.000316 µM): 87%
viability, T/C (second compound 3.16 µM, first compound 0.001 µM): 76%
viability, T/C (second compound 3.16 µM, first compound 0.00316 µM): 91.5%
viability, T/C (second compound 3.16 µM, first compound 0.01 µM): 81.1%
viability, T/C [25]: 76.3%
viability, T/C [26]: 42.8%
viability, T/C (second compound 10 µM, first compound 0.000316 µM): 108%
viability, T/C (second compound 10 µM, first compound 0.001 µM): 91.5%
viability, T/C (second compound 10 µM, first compound 0.00316 µM): 84.6%
viability, T/C (second compound 10 µM, first compound 0.01 µM): 72%
viability, T/C [31]: 52.7%
viability, T/C [32]: 60.7%

IC50 (second compound 0.0316 µM): > 10 µM
IC50 (second compound 0.1 µM): > 10 µM
IC50 (second compound 0.316 µM): > 10 µM
IC50 (second compound 1 µM): > 10 µM
IC50 (second compound 3.16 µM): > 10 µM
IC50 (second compound 10 µM): > 10 µM
SMILES: C[C@@H](NC(=O)c1ncnc(N)c1Cl)c1ncc(C(=O)Nc2cc(C(F)(F)F)c(Cl)cn2)s1 + C#Cc1c(F)ccc2cc(O)cc(-c3ncc4c(N5CC6CCC(C5)N6)nc(OCC56CCCN5CC(F)C6)nc4c3F)c12
viability, T/C [1]: 121%
viability, T/C [2]: 99.5%
viability, T/C [3]: 89.2%
viability, T/C [4]: 86.5%
viability, T/C [5]: 87.1%
viability, T/C [6]: 78.5%
viability, T/C [7]: 103%
viability, T/C [8]: 111%
viability, T/C [9]: 88.7%
viability, T/C [10]: 76.7%
viability, T/C [11]: 79.6%
viability, T/C [12]: 93.5%
viability, T/C [13]: 105%
viability, T/C [14]: 112%
viability, T/C [15]: 84.8%
viability, T/C [16]: 91.2%
viability, T/C [17]: 75.7%
viability, T/C [18]: 71.7%
viability, T/C [19]: 104%
viability, T/C [20]: 86.6%
viability, T/C [21]: 94.1%
viability, T/C [22]: 67%
viability, T/C [23]: 90.4%
viability, T/C [24]: 77%
viability, T/C [25]: 79.9%
viability, T/C [26]: 101%
viability, T/C [27]: 104%
viability, T/C [28]: 77.5%
viability, T/C [29]: 80.9%
viability, T/C [30]: 80.3%
viability, T/C [31]: 91.3%
viability, T/C [32]: 102%
viability, T/C [33]: 91.9%
viability, T/C [34]: 85%
viability, T/C [35]: 90.8%
viability, T/C [36]: 86.9%
